Source: PubChem BioAssay (NCI)
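Test compounds were applied to cells in 96-well plates for 48 hours at 5 doses. The concentration for 50% growth inhibition is given as GI50. TGI marks complete inhibition of growth.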

Legend:
Test in all cases: NCI anticancer screen, dose series, 48 h
A498 renal = tested on: A498 renal
KM12 colon = tested on: KM12 colon
MALME-3M melanoma = tested on: MALME-3M melanoma
MDA-MB-435 = tested on: MDA-MB-435
OVCAR-3 ovarian = tested on: OVCAR-3 ovarian
SF-295 CNS = tested on: SF-295 CNS
SK-MEL-2 melanoma = tested on: SK-MEL-2 melanoma
RPMI-8226 leukemia = tested on: RPMI-8226 leukemia

SMILES | GI50 (A498 renal) [µM] | TGI (A498 renal) [µM] | GI50 (KM12 colon) [µM] | TGI (KM12 colon) [µM] | GI50 (MALME-3M melanoma) [µM] | TGI (MALME-3M melanoma) [µM] | GI50 (MDA-MB-435) [µM] | TGI (MDA-MB-435) [µM] | GI50 (OVCAR-3 ovarian) [µM] | TGI (OVCAR-3 ovarian) [µM] | GI50 (SF-295 CNS) [µM] | TGI (SF-295 CNS) [µM] | GI50 (SK-MEL-2 melanoma) [µM] | TGI (SK-MEL-2 melanoma) [µM] | TGI (RPMI-8226 leukemia) [µM] | GI50 (RPMI-8226 leukemia) [µM]
COc1ccc(C(=O)O[C@H]2[C@H](O[C@H]3[C@@H](O)COC(O[C@H]4C[C@H]5[C@@H]6CC=C7C[C@@H](O)CC[C@]7(C)[C@H]6CC[C@]5(C)[C@H]4[C@H](C)C(=O)CCC(C)C)[C@@H]3OC(C)=O)OC[C@@H](O)[C@@H]2O)c(C)c1 (stereo not given in full) | < 0.01 | < 0.01 | 0.0674 | 21.3 | 0.0127 | 11.6 | < 0.01 | 0.0774 | 11.1 | 28.9 | < 0.01 | < 0.01 | < 0.01 | 3.23 | – | –
COc1cccc2nc3ccccc3nc12 | – | > 100 | – | > 100 | – | > 100 | – | > 100 | – | > 100 | – | > 100 | – | – | 69.1 | –
CCN(CC)CCN1C(=O)C2C3C(=O)CC(C)(CC3C)C2C1=O (stereo not given) | > 100 | > 100 | > 100 | > 100 | > 100 | > 100 | > 100 | > 100 | – | – | > 100 | > 100 | > 100 | > 100 | – | –
c1ccc(-c2n(Cc3ccc4ccccc4c3)cc[n+]2Cc2ccc3ccccc3c2)cc1 | – | – | – | – | 1.14 | 2.56 | 1.02 | 2.24 | – | – | 1.26 | 2.55 | – | – | – | –
Clc1ccc2ncc(-c3cccc(NC4CNC4)n3)n2c1 | 5.7 | 19.7 | 0.686 | > 100 | 8.59 | 26.4 | 4.76 | 21.5 | 18.9 | > 100 | 3.34 | 20.2 | 13.5 | 37.9 | – | –
COc1ccccc1/C=C/C1=C(C)CCC(c2ccccc2OC)C1C (stereo not given) | 0.0923 | 0.534 | 0.0879 | – | 11.9 | > 100 | 0.0595 | 0.154 | – | – | < 0.0201 | 1.53 | 0.224 | > 100 | > 100 | 0.0449
N#Cc1ccccc1C#C/C=C\C#CC#C/C=C\C#Cc1ccccc1C#N | – | – | 16.9 | 38.4 | 14.6 | 29.8 | 8.49 | 26.4 | 4.55 | 21.4 | 16.3 | 53 | 22.1 | 62.7 | > 100 | 4.11
COC(=O)C1(C)CC2C(C)(CCC3(C)C4=CC=C5C(=CC(=O)C(O)=C5C)C4(C)CCC23C)CC1O (stereo not given) | – | 3.51 | – | 4.09 | – | 2.24 | – | 2.31 | – | 2.24 | – | 3.43 | – | 2.94 | – | –
O=C1c2ccccc2C(=O)c2c1ccc1c(=O)n(-c3ccccc3C(F)(F)F)nnc21 | 1.76 | 3.65 | 1.88 | 5.5 | 1.27 | 2.54 | 1.66 | 3.1 | 0.315 | 1.42 | 2.59 | 7.02 | 2.64 | 7.61 | – | –
Cc1ccc(-c2nc3cc(Cl)c(Cl)cc3nc2C#N)cc1 | > 100 | > 100 | > 100 | > 100 | 92.7 | > 100 | > 100 | > 100 | > 100 | > 100 | > 100 | > 100 | > 100 | > 100 | – | –
COc1cc(/C=C/C(=O)/C=C/c2cc3ccc(Cl)cc3n(Cc3ccccc3)c2=O)ccc1O | – | – | 1.7 | 3.59 | 1.94 | 4.64 | 0.862 | 4.32 | 0.71 | 2.43 | 3 | 10.8 | 1.92 | 4.97 | 10.9 | 1.23
C[C@H](CS)C(=O)N1c2ccccc2C[C@H]1C(=O)O | – | > 100 | – | > 100 | – | – | – | – | – | > 100 | – | > 100 | – | > 100 | – | –
Cc1ccc(Cl)cc1NC(=O)c1cc2ccccc2cc1O | 0.369 | 1.04 | 0.396 | 1.89 | 0.211 | 0.692 | – | – | 0.313 | 1.02 | 1.14 | 3.57 | 0.19 | 0.707 | 0.354 | 0.106
O=CNc1ccc(S(=O)(=O)c2ccc(NC=O)cc2)cc1 | – | – | – | > 100 | – | > 100 | – | > 100 | – | > 100 | – | > 100 | – | > 100 | > 100 | –
C/C(=N\n1c(O)c(C#N)cc(C#N)c1=O)c1ccncc1 | – | – | > 100 | > 100 | > 100 | > 100 | > 100 | > 100 | > 100 | > 100 | > 100 | > 100 | > 100 | > 100 | > 100 | > 100
CN(C)C=NC1CCC(C(C)(C)C)CC1 (stereo not given) | – | 49.6 | – | – | – | 34.9 | – | 33.3 | – | 28.8 | – | 31.2 | – | 35.4 | – | –
